Literature values, collected in US11903920B2, “Cannabinoid formulation: production method and use” (CHIROSYN DISCOVERY TECHNOLOGIES INC., priority 2022, dated 2024).

Conditions: depending on the method and route of administration

SMILES: C=C(C)[C@@H]1CCC(C)=C[C@H]1c1c(O)cc(CCCCC)cc1O [CBD, 2-[1R-3-methyl-6R-(1-methylethenyl)-2-cyclohexen-1-yl]-5-pentyl-1,3-benzenediol]
- Half-life: 1.4 to 120 h
